# Laboratory results: US10519177B2, “Heterocyclic compounds and uses thereof” (Plexxikon Inc., priority 2013, dated 2019)
# Experiments:
# MV-4-11 cells = assay: Oncology cell growth assay MV-4-11 (CellTiter Glo); assay type: cell-based; details: Homo sapiens, MV4-11, 72 h; MV-4-11, 3d growth; read-out: Cell activity (IC50 μM) MV-4-11 3d-Growth
# Procedure, shortened: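 Growth read by CellTiter Glo luminescence after 72 h compound treatment of MLL-AF4-bearing MV-4-11 cells (3000/well). Titration: 8 points, 1:3 steps, maximum 10 μM, 0.2% DMSO final. Data normalized to DMSO wells, four-parameter fit gives pIC50.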
# BRD4-BD12 (1-477) = BRD4-BD12 (1-477) (Homo sapiens (Human), UniProt O60885); assay: Alphascreen binding assay BRD4-BD12; details: BRD4(1 2) H4; read-out: Biochemical activity (IC50 μM) BRD4(1 2) H4
# Procedure, shortened: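 In this competition format, compounds displace a biotinylated tetra-acetyl H4 peptide from E. coli-expressed human BRD4 bromodomain constructs captured on nickel chelate beads. The reaction runs at pH 7.5 with 2 mM DTT and detergent for 1 h at room temperature before a 30 min bead step.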
SMILES,IC50 (MV-4-11 cells),IC50 (BRD4-BD12 (1-477))
"Cc1noc(C)c1-c1cnc2c(-c3ccc(C(=O)O)cc3)cn([C@H](c3ccccn3)C3CC3)c2c1 [P-0990, 4-[1-[(S)-cyclopropyl(2-pyridyl)methyl]-6-(3,5-dimethylisoxazol-4-yl)pyrrolo[3,2-b]pyridin-3-yl]benzoic acid]",< 1 µM,< 1 µM
"Cc1noc(C)c1-c1ccc2c(I)cn(C(c3ccccc3)c3ccccn3)c2c1 (centres unmarked) [P-0991, 4-[3-iodo-1-[phenyl(2-pyridyl)methyl]indol-6-yl]-3,5-dimethyl-isoxazole]",< 1 µM,< 1 µM
"Cc1noc(C)c1-c1ccc2c(-c3ccc(C(=O)O)cc3)cn(C(c3ccccc3)c3ccccn3)c2c1 (centres unmarked) [P-0992, 4-[6-(3,5-dimethylisoxazol-4-yl)-1-[phenyl(2-pyridyl)methyl]indol-3-yl]benzoic acid]",< 1 µM,< 1 µM
"COC(=O)c1ccc(-c2cn(C(c3ccccn3)C3CCCC3)c3cc(-c4c(C)noc4C)cnc23)cc1 (centres unmarked) [P-0993, methyl 4-[1-[cyclopentyl(2-pyridyl)methyl]-6-(3,5-dimethylisoxazol-4-yl)pyrrolo[3,2-b]pyridin-3-yl]benzoate]",< 1 µM,< 1 µM
"COC(=O)Cc1ccc(-c2cn(C(c3ccccn3)C3CCCC3)c3cc(-c4c(C)noc4C)cnc23)cc1 (centres unmarked) [P-0994, methyl 2-[4-[1-[cyclopentyl(2-pyridyl)methyl]-6-(3,5-dimethylisoxazol-4-yl)pyrrolo[3,2-b]pyridin-3-yl]phenyl]acetate]",< 1 µM,< 1 µM
"Cc1noc(C)c1-c1cnc2c(-c3ccc(C(=O)O)cc3)cn(C(c3ccccn3)C3CCCC3)c2c1 (centres unmarked) [P-0995, 4-[1-[cyclopentyl(2-pyridyl)methyl]-6-(3,5-dimethylisoxazol-4-yl)pyrrolo[3,2-b]pyridin-3-yl]benzoic acid]",< 1 µM,< 1 µM
"Cc1noc(C)c1-c1cnc2c(-c3ccc(CC(=O)O)cc3)cn(C(c3ccccn3)C3CCCC3)c2c1 (centres unmarked) [P-0996, 2-[4-[1-[cyclopentyl(2-pyridyl)methyl]-6-(3,5-dimethylisoxazol-4-yl)pyrrolo[3,2-b]pyridin-3-yl]phenyl]acetic acid]",< 1 µM,< 1 µM
"Cc1noc(C)c1-c1cnc2c(I)cn(C(c3ccccn3)C3CCCC3)c2c1 (centres unmarked) [P-0997, 4-[1-[cyclopentyl(2-pyridyl)methyl]-3-iodo-pyrrolo[3,2-b]pyridin-6-yl]-3,5-dimethyl-isoxazole]",< 1 µM,< 1 µM
"COC(=O)c1cc(-c2cn([C@@H](C)c3ccccn3)c3cc(-c4c(C)noc4C)cnc23)ccc1C [P-0998, methyl 5-[6-(3,5-dimethylisoxazol-4-yl)-1-[(1S)-1-(2-pyridyl)ethyl]pyrrolo[3,2-b]pyridin-3-yl]-2-methyl-benzoate]",< 1 µM,< 1 µM
"Cc1ccc(-c2cn([C@@H](C)c3ccccn3)c3cc(-c4c(C)noc4C)cnc23)cc1C(=O)O [P-0999, 5-[6-(3,5-dimethylisoxazol-4-yl)-1-[(1S)-1-(2-pyridyl)ethyl]pyrrolo[3,2-b]pyridin-3-yl]-2-methyl-benzoic acid]",< 1 µM,< 1 µM
"Cc1noc(C)c1-c1cnc2c(-c3csc(C(=O)O)c3)cn([C@@H](C)c3ccccn3)c2c1 [P-1005, 4-[6-(3,5-dimethylisoxazol-4-yl)-1-[(1S)-1-(2-pyridyl)ethyl]pyrrolo[3,2-b]pyridin-3-yl]thiophene-2-carboxylic acid]",1 to 10 µM,< 1 µM
"COC(=O)c1ccc(-c2cn([C@@H](C)c3ccccn3)c3cc(-c4c(C)noc4C)cnc23)s1 [P-1006, methyl 5-[6-(3,5-dimethylisoxazol-4-yl)-1-[(1S)-1-(2-pyridyl)ethyl]pyrrolo[3,2-b]pyridin-3-yl]thiophene-2-carboxylate]",< 1 µM,< 1 µM
"COC(=O)c1ccc(-c2cn(C(c3ccccn3)C3CCC3)c3cc(-c4c(C)noc4C)cnc23)cc1 (centres unmarked) [P-1011, methyl 4-[1-[cyclobutyl(2-pyridyl)methyl]-6-(3,5-dimethylisoxazol-4-yl)pyrrolo[3,2-b]pyridin-3-yl]benzoate]",< 1 µM,< 1 µM
